Test results as given in US20120202840A1, “Use of Flubendazole and Vinca Alkaloids for Treatment of Hematological Diseases” (priority 2009, published 2012).

Experiments:
[1] = system: KB-4.0-HTI; test: MTS assay, KB-4.0-HTI (α-tubulin mutant); type: cell-based
Protocol: (§1) Next, whether microtubule inhibition was functionally important for flubendazole's cytotoxicity was determined.
(§2) Leukemia (U937, MDAY, CEM, CEM-VBL) and solid tumor cell lines (PPC-1, HeLa) were cultured in RPMI 1640 medium. The epidermoid carcinoma cell lines KB-3-1 and KB-4.0-HTI^23 were grown in Dulbecco's Modified Eagle Medium. The lung carcinoma cell lines A549 and A549.EpoB40 were grown in RPMI with the latter supplemented with 20% fetal calf serum (FCS), and 40 nM epothilone B.^24 Leukemia cell lines OCI-AML2, CEM, and NB4 and all the myeloma cell lines (OPM2, KMS11, JJN3 LP1, H929, L1, KMS12, KSM18 and OCI My5) were maintained in Iscove's Modified Dulbecco's Medium (IMDM). TEX cells were maintained in IMDM, 15% FCS, 1% penicillin-streptomycin, 2 mM L-glutamine, 20 ng/mL SCF, 2 ng/mL IL-3. Unless otherwise noted, all media were supplemented with 10% FCS, 100 units/mL of streptomycin and 100 μg/mL of penicillin (all from Hyclone, Logan, Utah). Cells were incubated in a humidified air atmosphere containing 5% CO2 at 37° C.
(§3) Cell growth and viability was measured using the 3-(4,5-dimethylthiazol-2-yl)-5-(3-carboxymethoxyphenyl)-2-(4-sulfophenyl)-2H-tetrazolium inner salt (MTS) reduction assay (Promega, Madison, Wis.) according to the manufacture's protocol and as previously described^25. […] Optical density (OD) was measured at 490 nm.

[2] = system: bovine tubulin; test: Site of binding to tubulin (colchicine-tubulin fluorescence); conditions: tubulin 5.0 μM, 100 μM drug 30 min, then colchicine 10 μM 60 min
Protocol: (C) Tubulin (5.0 μM) was incubated for 30 min with 100 μM vinblastine, 100 μM flubendazole, or buffer control. […] A representative figure is shown.
The site of flubendazole binding was determined similar to Gupta et al^19. Bovine tubulin (5.0 μM) was incubated with 100 μM flubendazole, 100 μM vinblastine or buffer control for 30 min at 37° C.

[3] = system: A549; test: MTS assay, A549; type: cell-based; conditions: Homo sapiens, 3 replicates
Protocol: as §1, §2, §3

[4] = system: OCI-AML2 cells; test: Radioactive glucose uptake assay; type: cell-based; conditions: concentrations up to 4.0 μM, 16 hours
Protocol: (A) OCI-AML2 cells were incubated with increasing concentrations of flubendazole for 16 h and the uptake of 3H-deoxy-D-glucose was measured as in the materials and methods. Data represent the mean±SD glucose uptake. A representative experiment is shown.
The effect of flubendazole on the uptake of 2-deoxy-D-glucose in OCI-AML2 cells was performed using a radioactive glucose uptake assay as described by Wood et al^27. […] Uptake of 2-deoxy-D-glucose was initiated by the addition of 10 μM 2-deoxy-D-glucose and 1 μCi/mL 2-[^3H]deoxy-D-glucose in the HEPES-buffered saline solution at room temperature. After 5 min of incubation, 2-deoxy-D-glucose uptake was terminated by rinsing the cells three times with a 25 mM ice-cold glucose solution, followed by cell disruption with 0.05 N NaOH. Protein concentration was measured by the modified Bradford protein assay and cell-associated radioactivity was determined by scintillation counting. The mean counts per minute are expressed as picomoles/min/mg protein.

[5] = system: PPC-1 cells; test: Cell cycle analysis (PI, flow cytometry), PPC-1; type: cell-based; conditions: PPC-1, 1.0 μM, 24 h
Protocol: OCI-AML2 cells (A) or PPC-1 cells (B) were incubated with 1.0 μM flubendazole or buffer control for 24 h. Cells were then stained with PI and the DNA content was measured by flow cytometry. A representative figure is shown.
Cell cycle analysis was performed as described by Mao et al^31. Briefly, OCI-AML2 or PPC-1 cells were harvested, washed with cold PBS and resuspended in PBS and cold absolute ethanol. Cells were then treated with 100 ng/mL of DNase-free RNase A (Invitrogen, Carlsbad, Calif.) at 37° C. for 30 min, washed with cold PBS, resuspended in PBS and incubated with 50 μg/mL of propidium iodine (PI) for 15 min at room temperature in the dark. DNA content was measured by flow cytometry (FACSCalibur, Becton Dickinson, Florida, USA) and analyzed with FlowJo software version 7.0 (TreeStar, Ashland, Oreg.).

[6] = system: Primary AML cell samples; test: Methylcellulose colony forming assay; type: cell-based, human; conditions: primary AML samples (n=3), colonies counted 7 days after plating
Protocol: (C) Primary AML cell samples (n=3) were plated in a methylcellulose colony forming assay with increasing concentrations of flubendazole. Colonies were counted 7 days after plating and normalized to cultures treated with buffer alone. Data represent the mean±SD from 3 independent experiments performed in duplicate.
Primary human acute myeloid leukemia (AML) samples were isolated from the peripheral blood of consenting AML patients, who had at least 80% malignant cells among the mononuclear cells in their peripheral blood and cultured at 37° C. in IMDM, 10% fetal calf serum, 100 units/mL of streptomycin and 100 μg/mL of penicillin. The collection and use of human tissue for this study was approved by the local ethics review board (University Health Network, Toronto, ON, Canada).

[7] = system: U937 leukemia cells; test: Analysis of gene expression (Affymetrix arrays); type: cell-based; conditions: 1.0 μM, 4 hours
Protocol: Briefly, total RNA was harvested from treated and untreated cells and hybridized to Affymetrix HG U133 Plus 2.0 gene expression oligonucleotide arrays (Affymetrix, Santa Clara, Calif., USA). Labeling and hybridization to arrays were performed by The Centre for Applied Genomics (Medical and Related Sciences Centre, Toronto, ON, Canada). Microarray data were analyzed using GeneSpring GX v10.0 (Agilent), and genes deregulated >4-fold after 4 hours flubendazole treatment were identified. Pathways and gene ontology analyses were carried out using Ingenuity Pathways Analysis (www.ingenuity.com) and the Database for Annotation, Visualization and Integrated Discovery (DAVID; http://david.abcc.ncifcrf.gov). Connectivity Map analysis, which compares the changes in gene expression signature following flubendazole treatment with gene expression signatures following treatment with other common pharmacological agents, was also performed (http://www.broadinstitute.org/cmap).

COC(=O)Nc1nc2ccc(C(=O)c3ccc(F)cc3)cc2[nH]1 [flubendazole]
IC50 ([1]; KB-4.0-HTI, MTS assay, 3 replicates): 12.5 ± 1.8 µM | IC50 higher in KB-4.0-HTI than in KB-3-1 wild type cells ([1]; ratio of IC50 values of Table 1): 7 fold | colchicine fluorescence (colchicine binding to tubulin) [2]: decreased colchicine fluorescence | IC50 [3]: 4.1 ± 1.3 µM | uptake of 3H-deoxy-D-glucose [4]: did not alter glucose uptake | cell cycle [5]: arrested cells in the G2 phase | clonogenic growth [6]: reduced the clonogenic growth | number of genes deregulated >4 fold [7]: 196
